Test results: patent EP0125420B1, “Water soluble dispersions of chlorthalidone and process for preparing them” (Boehringer Ingelheim Pharmaceuticals Inc., priority 1983, dated 1984)
Values after ≈ are worked out from the molar mass of the structure shown.

Key:
physchem = assay type: physicochemical; details: organic solvent or mixture
Text: The amount of the Cl-C4 alkanol employed in the process of the invention should be sufficient to solubilize both the polymeric carrier and chlorthalidone. It will be apparent to those skilled in the art that best results will be achieved on a large scale using as high a concentration of chlorthalidone as is possible. Thus, optimally the process should be carried out using concentrations of chlorthalidone at the upper limits of solubility.

[1] = stability of the solution to ether formation; assay type: physicochemical; details: chlorthalidone added to solution of polymeric carrier in C1-C4 alkanol
Text: The polymeric carrier polyvinylpyrrolidone (PVP), used in the process of the invention must be pharmaceutically acceptable and be substantially soluble both in water and in the particular Cl-C4 alkanol selected for use in the process. Moreover, the polymeric carrier must be capable of forming a solid state dispersion of chlorthalidone after removal of the alkanol, and be capable of suppressing ether formation arising from reaction of the chlorthalidone with the Cl-C4 alkanol, as discussed above. The ability of a polymeric carrier to suppress ether formation can be determined routinely by dissolving chlorthalidone in a Cl-C4 alkanol, such as methanol, in a glass container in the presence and absence of the polymeric carrier and analyzing aliquots of the solution (taken at varying times up to 24 hours) for chlorthalidone content by HPLC techniques. An acceptable loss of chlorthalidone is up to about 2% after 24 hours at 40°C. The general use of polyvinylpyrrolidone (PVP), to prepare solid state dispersions of pharmaceutical active ingredients is described by the Chiou reference, supra. […] It is believed that PVP suppresses the formation of ethers primarily by complexing trace amounts of heavy metal ions thus making them unavailable for catalysis. […]

[2] = water; cited from earlier work

NS(=O)(=O)c1cc(C2(O)NC(=O)c3ccccc32)ccc1Cl (stereo not drawn) [Chlorthalidone]
solubility thermodynamic (physchem; ethanol): 15.5 mg/mL (≈ 45.8 mM)
solubility thermodynamic (physchem; isopropanol): 3.2 mg/mL (≈ 9.45 mM)
solubility thermodynamic (physchem; methanol): 76.1 mg/mL (≈ 225 mM)
stable to ether formation ([1]; continued heating): at least one hour
stable to ether formation ([1]; room temperature): at least four days
aqueous solubility [2]: ~0.12 mg/mL (≈ 0.354 mM)
